The target in test [1] is G-protein coupled receptor 55 (Homo sapiens, UniProt Q9Y2T6). Briefly: GPR55 agonists via beta-arrestin recruitment, primary screen, imaging, U2OS cells, beta-arrestin-GFP redistribution (AID 1961). In kind it is functional.
Test [2] has as its target T1, Intestinal-type alkaline phosphatase (Homo sapiens, UniProt P09923). The test can be described thus: human IAP activators, dose response, biochemical, luminescent, uHTS hits, set 2 (AID 488817).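 Also: potency of activators that raise enzyme activity.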 In kind it is functional.
Test [3] concerns the target T2, Alkaline phosphatase, tissue-nonspecific isozyme (Homo sapiens, UniProt P05186).
T2 sequence (P05186 whole entry): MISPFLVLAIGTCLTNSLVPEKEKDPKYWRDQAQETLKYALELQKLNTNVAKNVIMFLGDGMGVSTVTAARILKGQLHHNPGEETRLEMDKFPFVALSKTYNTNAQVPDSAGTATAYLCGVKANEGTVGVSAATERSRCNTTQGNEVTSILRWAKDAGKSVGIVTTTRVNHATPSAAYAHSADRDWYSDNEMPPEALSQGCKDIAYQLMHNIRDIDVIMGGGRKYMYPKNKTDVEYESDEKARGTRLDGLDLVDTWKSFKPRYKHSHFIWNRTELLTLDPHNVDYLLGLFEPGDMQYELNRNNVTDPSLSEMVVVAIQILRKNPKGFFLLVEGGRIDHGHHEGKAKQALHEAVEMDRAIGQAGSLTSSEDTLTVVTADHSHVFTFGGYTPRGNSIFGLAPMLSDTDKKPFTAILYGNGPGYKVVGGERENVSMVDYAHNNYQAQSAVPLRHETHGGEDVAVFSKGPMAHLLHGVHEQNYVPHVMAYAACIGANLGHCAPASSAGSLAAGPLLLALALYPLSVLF
The test can be described thus: TNAP enzyme inhibition by screening hits, dose response, selectivity assay for mouse IAP inhibitor project, biochemical, human TNAP, uHTS hits (AID 488906). The class given is functional.

In test [4] the target is T3, Intestinal-type alkaline phosphatase (Mus musculus, UniProt P24822). Briefly: PubChem AID 488785. In kind it is functional.
T3 sequence (P24822 whole entry): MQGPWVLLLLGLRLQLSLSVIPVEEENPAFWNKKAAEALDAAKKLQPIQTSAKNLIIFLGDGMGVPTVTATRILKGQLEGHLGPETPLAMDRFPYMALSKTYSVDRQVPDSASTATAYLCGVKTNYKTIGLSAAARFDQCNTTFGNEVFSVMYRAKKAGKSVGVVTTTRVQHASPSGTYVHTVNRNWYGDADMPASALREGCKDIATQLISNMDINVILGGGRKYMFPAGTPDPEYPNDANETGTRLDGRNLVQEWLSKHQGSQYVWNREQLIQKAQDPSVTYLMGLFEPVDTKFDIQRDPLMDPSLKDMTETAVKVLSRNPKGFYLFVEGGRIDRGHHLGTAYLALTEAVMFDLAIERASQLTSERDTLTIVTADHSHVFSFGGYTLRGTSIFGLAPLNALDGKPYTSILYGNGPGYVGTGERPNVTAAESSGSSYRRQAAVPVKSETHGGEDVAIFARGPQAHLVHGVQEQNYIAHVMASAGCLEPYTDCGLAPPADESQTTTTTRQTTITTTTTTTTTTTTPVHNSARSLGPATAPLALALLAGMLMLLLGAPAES
The target of test [5] is T1, Intestinal-type alkaline phosphatase. Briefly: activation of human intestinal alkaline phosphatase – biochemical, dose response (AID 488873). In kind it is functional.
For test [6] the target is unchanged. Briefly: human intestinal alkaline phosphatase activators, dose response, biochemical, luminescence, uHTS hits (AID 463120). The class given is functional.
Test [7] deals with T3, Intestinal-type alkaline phosphatase. Briefly: PubChem AID 488875. The class given is functional.
Test [8] addresses T2, Alkaline phosphatase, tissue-nonspecific isozyme. The test can be described thus: TNAP enzyme activators, dose response, selectivity assay for human IAP activator project, biochemical, TNAP isozyme, human IAP uHTS hits (AID 488886).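 Also: potency of compounds raising TNAP activity as a selectivity check on IAP activators.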 In kind it is functional.
The target in test [9] is T4, Type-1 angiotensin II receptor (Homo sapiens, UniProt P30556).
T4 sequence (P30556 whole entry): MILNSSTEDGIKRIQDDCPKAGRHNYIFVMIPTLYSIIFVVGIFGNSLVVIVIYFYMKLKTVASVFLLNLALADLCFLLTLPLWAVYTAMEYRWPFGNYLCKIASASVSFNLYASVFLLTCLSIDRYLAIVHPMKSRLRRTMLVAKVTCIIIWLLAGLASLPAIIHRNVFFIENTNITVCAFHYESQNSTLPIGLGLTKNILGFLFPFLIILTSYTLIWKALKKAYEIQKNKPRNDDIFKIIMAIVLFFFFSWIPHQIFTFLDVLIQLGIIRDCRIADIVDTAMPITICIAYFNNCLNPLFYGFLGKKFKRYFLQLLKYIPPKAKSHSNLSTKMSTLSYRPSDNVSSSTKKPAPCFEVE
Briefly: AT1 receptor agonists, dose response, selectivity assay for APJ receptor agonist project, cell-based, uHTS hits (AID 488865).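 Also: beta-arrestin recruitment to AT1 measured by enzyme fragment complementation luminescence.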 In kind it is functional.

In test [10] the target is Sphingosine 1-phosphate receptor 1 (Homo sapiens, UniProt P21453). Briefly: Fluorescence-based counterscreen assay for S1P4 agonists: Cell-based dose response high throughput screening assay to identify agonists of the Sphingosine 1-Phosphate Receptor 1 (S1P1). [Related pubchem assays (depositor defined):AID1509, AID1523, AID1801, AID463107, AID463118, AID463119, AID463122, AID463123, AID463129, AID463225, AID504400, AID504460]. In kind it is functional.
Sphingosine 1-phosphate receptor 1, sequence (P21453 whole entry): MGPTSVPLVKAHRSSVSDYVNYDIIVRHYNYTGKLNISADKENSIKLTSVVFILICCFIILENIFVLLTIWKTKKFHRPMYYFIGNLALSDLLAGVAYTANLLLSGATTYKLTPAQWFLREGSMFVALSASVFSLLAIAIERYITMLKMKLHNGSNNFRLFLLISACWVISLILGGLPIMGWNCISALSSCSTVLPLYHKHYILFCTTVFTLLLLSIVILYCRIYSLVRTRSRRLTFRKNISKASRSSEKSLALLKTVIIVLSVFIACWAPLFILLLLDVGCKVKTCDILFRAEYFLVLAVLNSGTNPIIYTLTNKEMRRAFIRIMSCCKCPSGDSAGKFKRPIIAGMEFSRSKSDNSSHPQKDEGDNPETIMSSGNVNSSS

The target in test [11] is Sphingosine 1-phosphate receptor 4 (Homo sapiens, UniProt O95977). Briefly: Fluorescence dose response cell-based high throughput screening assay for agonists of the Sphingosine 1-Phosphate Receptor 4 (S1P4). [Related pubchem assays: 1509 (Primary screen.), 1523 (Confirmation screen in triplicates.)]. In kind it is functional.
Sphingosine 1-phosphate receptor 4, sequence (O95977 whole entry): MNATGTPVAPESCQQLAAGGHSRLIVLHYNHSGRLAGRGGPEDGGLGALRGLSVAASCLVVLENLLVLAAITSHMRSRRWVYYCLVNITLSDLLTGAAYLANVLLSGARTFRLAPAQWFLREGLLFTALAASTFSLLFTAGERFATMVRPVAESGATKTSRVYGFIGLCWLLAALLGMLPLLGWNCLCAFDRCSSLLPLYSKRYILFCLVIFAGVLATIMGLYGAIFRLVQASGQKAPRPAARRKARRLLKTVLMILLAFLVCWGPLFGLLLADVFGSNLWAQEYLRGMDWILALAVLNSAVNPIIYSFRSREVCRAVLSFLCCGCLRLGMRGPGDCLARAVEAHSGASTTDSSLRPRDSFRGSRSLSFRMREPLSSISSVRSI
The target of test [12] is Tyrosine-protein phosphatase non-receptor type 5 (Homo sapiens, UniProt P54829). The test can be described thus: STEP phosphatase inhibitors, confirmation, biochemical, fluorescence intensity, uHTS hits (AID 602372). As to conditions: read-out: IC50_Mean. The class given is functional.
Tyrosine-protein phosphatase non-receptor type 5, sequence (P54829 whole entry): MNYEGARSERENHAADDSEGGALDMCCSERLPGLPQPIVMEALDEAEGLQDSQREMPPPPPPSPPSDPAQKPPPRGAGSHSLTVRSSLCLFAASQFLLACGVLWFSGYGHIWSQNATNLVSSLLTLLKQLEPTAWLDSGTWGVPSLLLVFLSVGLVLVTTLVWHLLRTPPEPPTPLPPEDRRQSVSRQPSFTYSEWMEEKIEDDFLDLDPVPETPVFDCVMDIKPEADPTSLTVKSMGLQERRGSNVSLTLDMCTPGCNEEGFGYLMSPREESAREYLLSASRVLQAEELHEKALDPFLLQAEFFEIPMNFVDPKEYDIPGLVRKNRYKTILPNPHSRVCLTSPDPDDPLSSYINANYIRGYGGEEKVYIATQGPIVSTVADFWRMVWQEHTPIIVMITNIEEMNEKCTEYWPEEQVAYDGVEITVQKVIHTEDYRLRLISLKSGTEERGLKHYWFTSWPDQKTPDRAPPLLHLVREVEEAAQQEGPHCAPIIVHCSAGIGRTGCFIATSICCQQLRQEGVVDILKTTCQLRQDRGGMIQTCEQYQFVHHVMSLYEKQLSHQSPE
Test [13] has as its target T5, Dual specificity protein phosphatase 3 (Homo sapiens, UniProt P51452). Briefly: MOA VHR1 Fluorescent secondary assay for identification of redox-state modulating compounds. [Related pubchem assays (depositor defined):AID1654, AID1661, AID1878, AID1957].
Test [14] has as its target T5, Dual specificity protein phosphatase 3. The test can be described thus: VHR phosphatase inhibition, dose response, selectivity assay for STEP inhibitor project, biochemical (AID 602374). As to conditions: read-out: IC50_Mean. The class given is functional.
Test [15] concerns the target T6, Polyadenylate-binding protein 1 (Homo sapiens, UniProt P11940). Briefly: PABP1 MLLE–PAM2 binding inhibitor potency, dose response, biochemical, fluorescence polarization, FITC-PAM2 peptide (AID 602259). In kind it is functional. Particulars: read-out: IC50_Mean. A general note: In fluorescence polarisation assays a small probe gives low polarisation when free and higher when bound to something large.

Test [16] deals with Tyrosine-protein phosphatase non-receptor type 11 (Homo sapiens, UniProt Q06124). Briefly: SHP2 phosphatase inhibition, dose response, selectivity assay for STEP inhibitor project, biochemical (AID 602367). In kind it is functional. Particulars: read-out: IC50_Mean.
Tyrosine-protein phosphatase non-receptor type 11, sequence (Q06124 whole entry): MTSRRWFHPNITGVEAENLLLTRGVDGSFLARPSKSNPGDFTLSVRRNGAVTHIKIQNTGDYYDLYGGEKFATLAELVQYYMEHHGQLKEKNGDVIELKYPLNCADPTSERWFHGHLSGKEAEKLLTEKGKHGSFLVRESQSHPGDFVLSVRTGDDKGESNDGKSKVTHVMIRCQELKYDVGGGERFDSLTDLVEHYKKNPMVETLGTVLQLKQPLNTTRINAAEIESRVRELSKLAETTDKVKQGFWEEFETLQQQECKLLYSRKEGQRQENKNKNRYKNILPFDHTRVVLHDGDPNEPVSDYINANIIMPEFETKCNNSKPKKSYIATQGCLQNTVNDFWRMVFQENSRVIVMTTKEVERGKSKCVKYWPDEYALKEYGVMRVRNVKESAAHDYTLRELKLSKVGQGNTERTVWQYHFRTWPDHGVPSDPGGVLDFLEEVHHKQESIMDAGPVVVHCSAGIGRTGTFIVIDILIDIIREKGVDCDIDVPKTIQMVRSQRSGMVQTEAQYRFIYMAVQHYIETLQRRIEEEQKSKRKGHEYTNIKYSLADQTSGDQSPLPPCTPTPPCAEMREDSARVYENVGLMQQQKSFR
The target in test [17] is T7, Dual specificity protein phosphatase 6 (Rattus norvegicus, UniProt Q64346).
T7 sequence (Q64346 whole entry): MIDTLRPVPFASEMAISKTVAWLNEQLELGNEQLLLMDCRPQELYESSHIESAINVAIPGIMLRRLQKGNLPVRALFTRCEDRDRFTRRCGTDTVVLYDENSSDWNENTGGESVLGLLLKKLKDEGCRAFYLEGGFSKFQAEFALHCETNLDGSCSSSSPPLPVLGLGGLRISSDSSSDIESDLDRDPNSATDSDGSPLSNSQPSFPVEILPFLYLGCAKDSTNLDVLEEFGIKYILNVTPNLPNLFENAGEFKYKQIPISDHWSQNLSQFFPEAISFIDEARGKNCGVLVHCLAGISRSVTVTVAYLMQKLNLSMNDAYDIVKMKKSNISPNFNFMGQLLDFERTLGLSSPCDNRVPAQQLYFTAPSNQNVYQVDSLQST
The test can be described thus: MKP-3 phosphatase inhibitors, primary screen, biochemical, rat enzyme, in vitro (AID 425).

The target in test [18] is T5, Dual specificity protein phosphatase 3. Briefly: SAR VHR1 Fluorescent Assay for In Vitro dose response studies. [Related pubchem assays (depositor defined):AID1654, AID1661, AID1878, AID1992, AID2004, AID2070, AID2085]. In kind it is functional.
Test [19] has as its target T7, Dual specificity protein phosphatase 6. The class given is functional.
Test [20] concerns the target T5, Dual specificity protein phosphatase 3. Briefly: SAR VHR1 absorbance Assay for In Vitro dose response studies. [Related pubchem assays (depositor defined):AID1654, AID1661, AID1878, AID1992, AID2004].
Test [21] shares this target. Briefly: VHR1 phosphatase inhibitors, primary screen, biochemical, absorbance, uHTS (AID 1654).
Test [22] has as its target T6, Polyadenylate-binding protein 1. The test can be described thus: PABP1 MLLE–PAM2 interaction inhibitors, dose response, miRNA deadenylation inhibitor project, biochemical, fluorescence polarization, Cy5-PAM2 peptide, secondary (AID 602260). As to conditions: read-out: IC50_Mean. In kind it is functional.
Test [23] has as its target T8, Tyrosine-protein phosphatase non-receptor type 7 (Homo sapiens, UniProt P35236).
T8 sequence (P35236 whole entry): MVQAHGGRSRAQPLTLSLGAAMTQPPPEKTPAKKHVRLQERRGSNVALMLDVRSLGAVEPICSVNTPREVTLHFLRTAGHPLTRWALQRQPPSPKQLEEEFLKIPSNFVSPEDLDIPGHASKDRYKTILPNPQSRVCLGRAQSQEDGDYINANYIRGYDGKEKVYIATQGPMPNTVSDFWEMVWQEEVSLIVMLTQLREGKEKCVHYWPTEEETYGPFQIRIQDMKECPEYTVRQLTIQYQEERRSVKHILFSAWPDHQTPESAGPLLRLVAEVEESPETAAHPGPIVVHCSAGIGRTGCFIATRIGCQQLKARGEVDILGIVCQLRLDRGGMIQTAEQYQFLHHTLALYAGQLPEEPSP
The test can be described thus: redox-dependent HePTP inhibition, mechanism study, biochemical, fluorescence (AID 2068). The class given is functional.

Test [24] addresses T5, Dual specificity protein phosphatase 3. The test can be described thus: VHR1 phosphatase inhibitors, biochemical (AID 1878).
The target of test [25] is Voltage-dependent T-type calcium channel subunit alpha-1H (Homo sapiens, UniProt O95180). The test can be described thus: Cav3.2 T-type channel blockers, cell-based, SynthLib3 library, HEK293 Cav3.2, fluorescence (AID 493041). In kind it is functional.

“And” between values parts separate entries of the source, which are not always exact repeats. Equal entries are not always repeated. The source made the active and inactive calls.

T5 sequence (P51452 whole entry): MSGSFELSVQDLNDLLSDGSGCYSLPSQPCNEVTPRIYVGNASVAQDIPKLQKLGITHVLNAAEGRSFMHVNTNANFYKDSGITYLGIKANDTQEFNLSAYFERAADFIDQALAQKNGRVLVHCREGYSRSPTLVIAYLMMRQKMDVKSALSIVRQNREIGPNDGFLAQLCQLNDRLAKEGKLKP
T1 sequence (P09923 whole entry): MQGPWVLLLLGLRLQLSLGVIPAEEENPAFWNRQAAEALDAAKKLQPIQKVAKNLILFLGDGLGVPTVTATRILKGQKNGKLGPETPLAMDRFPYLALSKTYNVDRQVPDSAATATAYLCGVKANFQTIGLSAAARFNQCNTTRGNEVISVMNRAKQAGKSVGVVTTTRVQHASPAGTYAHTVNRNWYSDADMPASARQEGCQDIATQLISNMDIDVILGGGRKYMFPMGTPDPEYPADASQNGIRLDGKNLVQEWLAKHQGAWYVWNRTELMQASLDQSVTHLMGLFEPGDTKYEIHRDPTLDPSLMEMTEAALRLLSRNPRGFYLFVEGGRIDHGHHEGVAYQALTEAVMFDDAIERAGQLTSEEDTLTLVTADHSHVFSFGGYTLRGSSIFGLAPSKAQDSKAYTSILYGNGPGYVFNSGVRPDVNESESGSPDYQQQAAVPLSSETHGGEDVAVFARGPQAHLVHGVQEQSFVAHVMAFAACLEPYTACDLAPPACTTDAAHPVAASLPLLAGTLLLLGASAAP
T6 sequence (P11940 whole entry): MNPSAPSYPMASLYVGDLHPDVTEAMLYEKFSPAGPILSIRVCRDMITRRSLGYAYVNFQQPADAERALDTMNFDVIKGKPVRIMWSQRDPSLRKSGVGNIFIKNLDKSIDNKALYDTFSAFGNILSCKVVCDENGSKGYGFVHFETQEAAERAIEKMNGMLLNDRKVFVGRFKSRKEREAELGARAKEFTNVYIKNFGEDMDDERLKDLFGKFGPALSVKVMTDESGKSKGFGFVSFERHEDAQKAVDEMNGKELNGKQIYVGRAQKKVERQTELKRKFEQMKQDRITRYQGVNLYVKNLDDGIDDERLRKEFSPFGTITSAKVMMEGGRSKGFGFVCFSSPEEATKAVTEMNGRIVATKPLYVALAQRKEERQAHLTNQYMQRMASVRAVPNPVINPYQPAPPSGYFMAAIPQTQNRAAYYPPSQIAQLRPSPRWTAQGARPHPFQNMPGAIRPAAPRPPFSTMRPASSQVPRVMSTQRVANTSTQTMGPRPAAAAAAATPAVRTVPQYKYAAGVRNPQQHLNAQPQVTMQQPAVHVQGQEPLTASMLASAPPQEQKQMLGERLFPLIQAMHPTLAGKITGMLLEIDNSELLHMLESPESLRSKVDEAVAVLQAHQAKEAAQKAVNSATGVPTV
G-protein coupled receptor 55, sequence (Q9Y2T6 whole entry): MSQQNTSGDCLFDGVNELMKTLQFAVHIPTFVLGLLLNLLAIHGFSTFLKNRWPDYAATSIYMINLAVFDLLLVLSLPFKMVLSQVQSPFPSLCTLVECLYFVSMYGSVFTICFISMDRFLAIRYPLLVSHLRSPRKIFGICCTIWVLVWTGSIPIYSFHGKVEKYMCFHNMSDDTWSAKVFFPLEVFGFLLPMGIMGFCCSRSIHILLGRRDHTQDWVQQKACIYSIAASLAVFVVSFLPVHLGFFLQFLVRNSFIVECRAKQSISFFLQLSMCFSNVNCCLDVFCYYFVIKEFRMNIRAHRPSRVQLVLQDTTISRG

Consider `CCN(CC)S(=O)(=O)c1ccc(OC)c(NC(=O)C(C)Oc2ccc3c(C)cc(=O)oc3c2)c1` (stereo not given), for which, in [1], the EC50 is 16.4 µM (inactive).

As for `CCn1nc(C)c(CN2CCC(C(=O)Nc3cccc(-c4cccc(F)c4)c3)CC2)c1C`, the EC50 in test [2] is 52.9 µM (active); in test [5] it was > 100 µM (inactive); in test [6], 59.8 µM (active); in test [7], 49.9 µM (active); in test [8], 54 µM (active). Also, the IC50 in test [3] is 23.4 µM (active); in test [4], 8.35 µM (active).

Consider `COC(=O)CCCC1=CC2=CC(=O)C(C)(OC(=O)c3cccs3)C(=O)C2=CN1C1CCCCC1` (stereo not given), for which, in [9], the EC50 is > 100 µM (inactive).

With `CNC(=O)c1[nH]cnc1C(=O)N[C@@H](CC(C)C)C(=O)OCc1ccccc1`, the EC50 in test [10] is 22 µM (inactive); in test [11], 5.27 µM (active).

Regarding `COc1cc(C(=S)N2CCCCC2)ccc1O`, the IC50 in [12] was 5.11 µM (active); in test [13] it was 127 nM (active) and 5.55 µM (active); in test [14], 331 nM (active); in test [15], > 66 µM (inactive); in [16] it was 1.2 µM (active); in test [17], > 158 µM (not active). For the same compound, the IC50 in test [18] is 366 nM (active) and > 100 µM (inactive); in [19], > 100 µM (inactive); in [20], 958 nM (active); in [21], 1.68 µM (active); in test [22], > 66 µM (inactive); in test [23], 84.6 nM (active) and 3.16 µM (active). For the same compound, the IC50 in [24] is 3.34 µM (active).

For `CC(Cc1nnc(NC(=O)COc2ccc(Cl)cc2Cl)o1)CC(C)(C)C` (stereo not given), the EC50 in [25] was 10 µM (active).

A word on the EC50: it is the concentration that produces a half-maximal response.

(Values after ChEMBL document CHEMBL1201862, “PubChem BioAssay data set” (2004).)
